# Measured values: patent US20080027001A1, “NOGO RECEPTOR FUNCTIONAL MOTIFS, PEPTIDE MIMETICS, AND MUTATED FUNCTIONAL MOTIFS RELATED THERETO, AND METHODS OF USING THE SAME” (priority 2006, published 2008)
# “Also recorded” adds a separate entry of the source. Bridges are numbered along the chain shown (N, C = ends).
# Columns and labels:
# cerebellar neurons [1] = assay: Neurite outgrowth assay, inhibition by GT1b antibody; assay type: cell-based, rat; details: peptide 100 μg/ml; antibody tested at up to 40 μg/ml
# Experimental: Cerebellar neurons isolated from postnatal day ⅔ rat pups were cultured over monolayers of 3T3 cells (Doherty et al. (1991) Neuron 6(2):247-58) essentially as previously described (Williams et al. (1994) Neuron 13(3):583-94). Monolayers were established by seeding ˜80,000 cells into individual chambers of an eight-chamber tissue culture slide coated with poly-L-lysine and fibronectin. The cell lines, and monolayers, were maintained in Dulbecco's modified Eagle's medium supplemented with 10% fetal calf serum (FCS). […] Following careful fixation with 4% paraformaldehyde, the neurons were stained with a GAP-43 antibody, and the mean length of the longest neurite per cell was measured for ˜120-150 neurons, again as previously described (Williams et al. (1994) supra). […] The average of total neurite lengths from each neuron was measured automatically by the MetaXpress Neurite Outgrowth module (Molecular Devices, Sunnyvale, Calif.) from at least 200 neurons per well, in triplicate wells per experiment. […]
# cerebellar neurons [2] = assay: Neurite outgrowth assay, inhibition by soluble MAG-Fc; assay type: cell-based, rat
# Experimental: (§1) Cerebellar neurons isolated from postnatal day ⅔ rat pups were cultured over monolayers of 3T3 cells (Doherty et al. (1991) Neuron 6(2):247-58) essentially as previously described (Williams et al. (1994) Neuron 13(3):583-94). Monolayers were established by seeding ˜80,000 cells into individual chambers of an eight-chamber tissue culture slide coated with poly-L-lysine and fibronectin. The cell lines, and monolayers, were maintained in Dulbecco's modified Eagle's medium supplemented with 10% fetal calf serum (FCS). Cocultures were established by removing the media from the monolayers and seeding ˜6000 dissociated cerebellar neurons into each well in SATO medium (modified from Doherty et al. (1990) Neuron 5(2):209-19; Dulbecco's modified Eagle's medium supplemented with 2% FBS, 33% bovine albumin, 0.62 μg/ml progesterone, 161 μg/ml putrescine, 4 μg/ml L-thyroxine, 0.387 μg/ml selenium, and 3.37 μg/ml tri-iodo-thyronine (components from Sigma-Aldrich, St. Louis, Mo.)). Monolayers were established for 24 hours prior to addition of the neurons and the cultures were maintained for ˜23-27 hr. Following careful fixation with 4% paraformaldehyde, the neurons were stained with a GAP-43 antibody, and the mean length of the longest neurite per cell was measured for ˜120-150 neurons, again as previously described (Williams et al. (1994) supra). For neurite outgrowth on substrate-bound MAG, 96-well plates were coated with a thin layer of nitrocellulose (Bio-Rad, Hercules, Calif.) before incubating with 1 μg/ml of MAG(d1-5) (a chimeric construct containing domains 1-5 of the extracellular portion of MAG) at 4° C. overnight. Wells were subsequently coated with 17 μg/ml of poly-D-lysine (Sigma, St. Louis, Mo.), followed by incubation in Dulbecco's modified Eagle's medium containing 10% FCS. Cerebellar granule neurons were dissociated and seeded at a density of 10^4 cells per well. Cells were cultured for 18-20 h before being fixed with 4% paraformaldehyde and stained with a neuronal-specific anti-III-tubulin antibody, Tuj 1 (Covance, Emeryville, Calif.). The average of total neurite lengths from each neuron was measured automatically by the MetaXpress Neurite Outgrowth module (Molecular Devices, Sunnyvale, Calif.) from at least 200 neurons per well, in triplicate wells per experiment. Results were repeated independently more than three times.
# (§2) Synthetic peptides were all obtained from a commercial supplier (Multiple Peptide Systems, San Diego, Calif.). All peptides were purified to the highest grade by reverse-phase HPLC and obtained at the highest level of purity (>97%). With all peptides, there was no indication of higher molecular weight species. Where peptide sequences are underlined, this denotes a peptide that has been cyclized via a disulfide bond between the given cysteine residues. All peptides were acetylated (e.g., denoted with “N-Ac-”) and amide blocked (e.g., denoted with “—NH2”). Recombinant MAG-Fc chimera was obtained from R&D Systems (Minneapolis, Minn.) and used at final concentrations ranging from 5-25 μg/ml. The monoclonal antibody to GT1b (clone GMR5) was obtained from Seikagaku America (Falmouth, Mass.) and was used at a final concentration of 20 μg/ml. All reagents were diluted into the coculture media and, in general, added to the cultures just prior to the plating of the neurons. GT1b and GM1 were obtained as gifts from Dr. Gino Toffano (Libero, Italy) and University of Milan, and asialo-GM1 was obtained from Sigma (St. Louis, Mo.). The recombinant NgR1(310)-fc and MAG(d1-5) chimeras were expressed and purified in-house. Pharmacological reagents were obtained from Calbiochem (La Jolla, Calif.) and/or Sigma. For reagents used in cell-surface NgR binding assays, please see Examples 1.5 and 1.7. For reagents used in the cell surface p75NTR-NgR-AP binding assay, please see Example 1.13.
# (§3) In contrast, a soluble MAG-Fc chimera inhibits neurite outgrowth in a manner that depends upon both ganglioside and NgR function. […]
# cerebellar neurons [3] = assay: Neurite outgrowth assay, control media (basal outgrowth); assay type: cell-based, rat
# Experimental: as §1, §2, §3
# [4] = tested on: NgR1 expressed in CHO cells (MAG-AP binding); assay: Neuraminidase treatment, MAG-AP binding to NgR1-expressing CHO cells; details: MAG-AP 2.5-20 μg/ml; CHO cells treated with neuraminidase
# Experimental: (§4) Chinese hamster ovary (CHO) parental cells and NgR1 stable cells were seeded at 30,000 cells per well in 96-well plates the night before the assay. Various concentrations of Vibrio cholera neuraminidase (Roche Applied Science, Indianapolis, Ind.) in growth medium (Dulbecco's modified Eagle medium containing 10% fetal bovine serum) were incubated with cells for an hour at 37° C. Medium was replaced with affinity-purified MAG-AP or Nogo66-AP in HBSS supplemented with 1% fetal bovine serum and […] of HEPES and incubated at room temperature for 90 min. Cells were then washed four times with supplemented HBSS. AltoPhos (0.6 mg/ml) (Promega, Madison Wis.) was added for indication of bound ligands. After a 30 minute incubation at RT, the plates were read at […] wavelength of 400 nm/505 nm with FLEXSTATION® 11384.
# (§5) In neurons, soluble MAG binds to the NgR1 and NgR2 in a sialic acid-dependent manner (Venkatesh et al. (2005) supra). In the present study, the neuraminidase sensitivity of MAG binding to the NgR1 expressed in CHO cells was confirmed.
# [5] = tested on: NgR1 expressed in CHO cells (Nogo66-AP binding); assay: Neuraminidase treatment, Nogo66-AP binding to NgR1-expressing CHO cells; details: highest concentration of neuraminidase; Nogo66-AP 10 μg/ml
# Experimental: as §4, §5
Substance,antagonism of GT1b antibody inhibition of neurite outgrowth (cerebellar neurons [1]),peptide concentration at which response reaches plateau (cerebellar neurons [2]; MAG-Fc 25 μg/ml (FIG. 5B)),peptide concentration with near maximal inhibitory activity (cerebellar neurons [2]; MAG-Fc present),"effect on MAG-Fc-suppressed neurite outgrowth (cerebellar neurons [2]; peptide 100 μg/ml, MAG-Fc 25 μg/ml (FIG. 5A))","effect on basal neurite outgrowth (cerebellar neurons [3]; peptide 100 μg/ml, without MAG-Fc)",effect on neurite outgrowth in control media (cerebellar neurons [3]; tested at up to 200 μg/ml),inhibition of specific binding of MAG-AP to NgR1-expressing cells [4],effect on Nogo66-AP binding to NgR1 [5]
N-Ac-CLQKFRGSSC-NH2 (disulfide 1-10 (inferred)) [NRL2],fully inhibited the response; also recorded: failed to inhibit neurite outgrowth,~45 µM,~45 µM,failed to substantially inhibit neurite outgrowth,no effect,no significant effect,,
neuraminidase: Vibrio cholera neuraminidase (Roche Applied Science),,,,,,,55%,completely unaffected
